One assay has as its target T1, E72Q-mVDAC1 (Mus musculus, UniProt Q60932, E72Q).
T1 construct: made in house; host or cells: yeast (purified from mitochondria of yeast expressing mutated mVDAC1)
The assay can be described thus: VDAC channel recording in planar lipid bilayer (PLB). It is filed as biochemical. Conditions: PLB, 0 mV to −20 mV; all ten experiments. On the procedure: (§1) Native and mutated mVDAC1 were extracted with lauryldimethylamine N-oxide (LDAO) from mitochondria isolated from yeast expressing various VDACs, and purified by chromatography on hydroxyapatite followed by carboxymethyl (CM)-cellulose where LDAO was replaced by β-OG (β-octylglucoside).
(§2) Reconstitution of purified VDAC into a planar lipid bilayer (PLB) multi-channel current recording and data analyses were carried as follows. Briefly, PLB were prepared from soybean asolactin dissolved in n-decane (50 mg/ml) in a chamber containing 10 mM HEPES/KOH pH 7.4 and 0.5 or 1M NaCl (cis/trans). Only PLBs with a resistance greater than 100 GΩ were used. Purified VDAC (about 1 ng) was added to the chamber defined as the cis side. After one or a few channels inserted into the PLB, excess protein was removed by perfusion of the cis chamber with 20 volumes of a solution (with the same composition as before perfusion), in order to prevent further protein incorporation. Currents were recorded under voltage-clamp mode using a Bilayer Clamp amplifier (Warner Instrument, USA). The currents were measured with respect to the trans side of the membrane (ground). The currents were low-pass filtered at 1 kHz, using a Bessal filter (Frequency Devices, USA) and digitized on-line using a Digidata 1200 interface board and pCLAMP 6 software (Axon Instruments). Sigma Plot 2000 scientific software was used for data analyses. Experiments were performed at 23-25° C.
(§3) FIG. 1A: Purified recombinant native or E72Q-mutated mVDAC1 was reconstituted into a PLB (planar lipid bilayer) in symmetrical solutions of 0.5 M NaCl. Currents through VDAC1 channel in response to a voltage step from zero to −20 mV were recorded before and 5 min after the addition of HK-I (28.6 mU/ml). The dashed lines indicate the zero-current level. […] FIG. 1C: Cytochrome c release was assayed, using a monoclonal anti-cytochrome c antibody, in the absence or the presence of HK-I (1 U/ml), chymotrypsin-treated HK-I (1 U/ml) or CsA (10 micro M).
(§4) RuR, known to interact with several Ca^2+ binding proteins and to inhibit Ca^2+ transport in mitochondria, inhibited channel activity of native but not of E72Q-mutated VDAC1 (FIG. 5E). Purified recombinant native and E72Q-mVDAC1 variant were reconstituted into a planar lipid bilayer (PLB) and the currents produced in response to voltages stepped from a holding potential of 0 mV to −20 mV were recorded. […] The level of inhibition calculated from […] different experiments was 89.2±2.8% (mean±SD, n=9). In contrast, the channel activity of E72Q-mVDAC1 was not inhibited by RuR in all ten experiments.

Assay [1] addresses T2, recombinant native mVDAC1 (Mus musculus, UniProt Q60932).
T2 construct: made in house; host or cells: yeast (purified from mitochondria of yeast expressing mVDAC1)
Described as above. It is filed as biochemical. Conditions: RuR; PLB, voltage stepped 0 mV to −20 mV; mean±SD, n=9. On the procedure:
as §1, §2, §3, §4

The next assay deals with U937 cells. The experiment in a line: Apoptotic cell death of U937 cells transfected with native or mutated mVDAC1, with/without RuR (acridine orange/ethidium bromide staining). It is filed as cell-based, human. On the procedure:
Logarithmically-growing U937 cells were resuspended in RPMI 1640 supplemented with 10% FCS, 100 U/ml penicillin and […] streptomycin at a concentration of 2.5×10^7 cells/ml. Cells were transfected to express rat or murine VDAC1 using the vectors pEGFP, pEGFP-VDAC1, pEGFP-E72Q-mVDAC1, pE-mVDAC1 or pE-E72Q-mVDAC1. Transfection of the U937 cells was performed by electroporation with a single pulse from a Bio-Rad micropulser II with a capacitance extender unit (200 V, […]). Cells were incubated on ice for 10 min before and after transfection, and then resuspended in 20 ml of RPMI 1640 supplemented with 10% FCS, 1 mM l-glutamine, 100 U/ml penicillin and […] streptomycin. […] GFP-positive cells were viewed under a microscope using a blue filter.
Cells were plated at a density of 5.4×10^4 cells/cm^2 in 24-well plates, washed once with PBS and placed in serum-free medium. Cells were then incubated with or without RuR or Ru360. Cells were also treated with […] staurosporine (STS) to induce apoptosis and analyzed for viability 3, 5 and 7 hrs after STS addition. Treatments with curcumin (120 μM) or As2O3 (20 μM) were carried out for 48 hrs.
Fifty six (56) hr after transfection, cells were exposed for 20 hr to RuR (1 μM) and cell viability was analyzed using acridine orange/ethidium bromide staining. In each independent experiment, approximately 250 cells were counted for each including early and late apoptotic cells. Data shown in FIG. 5 and Table 2 are the mean±SEM (n=3).

The test system of assay [2] is permeability transition pore (PTP). The assay can be described thus: PTP opening monitored by Ca2+ accumulation and mitochondrial swelling. The assay is classed as biochemical, rat. Conditions: LP1 0.1 mM or 0.3 mM; brain HK-I 0.25 U/ml pre-incubated 10 min with LP1. How it is done: Ca^2+ uptake by freshly prepared rat liver mitochondria (0.5 mg/ml) was assayed for 1 to 20 minutes at 30° C. in the presence of 225 mM mannitol, 75 mM sucrose, 120 μM CaCl2 (containing 3×10^4 cpm/nmol [^45Ca^2+]), 5 mM HEPES/KOH, 5 mM succinate and 0.1 mM Pi, pH 7.0. Uptake of ^45Ca^2+ was terminated by rapid Millipore filtration followed by a wash with 5 ml of 150 mM KCl.
Ca^2+-induced mitochondria large amplitude swelling was assayed in freshly-prepared mitochondria under the same conditions as for Ca^2+ accumulation, except that the temperature was 24° C. Cyclosporine A (CsA)-sensitive mitochondrial swelling was initiated upon addition of Ca^2+ (0.2 mM) to the sample. Absorbance changes at 520 nm were monitored every 15-20 sec with an Ultraspec 2100 spectrophotometer.
The failure of non-binding species of HK, such as yeast HK, or trypsin- or chymotrypsin-treated HK-I (FIG. 2D) to prevent PTP opening, confirmed the specificity of the HK-I effect, and of the requirement of the HK-I N-terminal region for its interaction with VDAC.
Mitochondrial swelling was assayed in the absence (control ●) or the presence of HK-I (gray ●) and in presence HK-I pre-incubated with peptide LP1. Mitochondrial swelling was assayed as in FIG. 2 in the absence and the presence of peptide LP1 (0.1 mM or 0.3 mM), brain HK-I (0.25 U/ml) or with HK-I pre-incubated for 10 min with LP1. […]

A further assay concerns the target T3, mitochondrial bound HK-I (Rattus norvegicus, UniProt P05708).
T3 construct: from tissue; host or cells: rat brain mitochondria
T3 sequence (P05708 1-918): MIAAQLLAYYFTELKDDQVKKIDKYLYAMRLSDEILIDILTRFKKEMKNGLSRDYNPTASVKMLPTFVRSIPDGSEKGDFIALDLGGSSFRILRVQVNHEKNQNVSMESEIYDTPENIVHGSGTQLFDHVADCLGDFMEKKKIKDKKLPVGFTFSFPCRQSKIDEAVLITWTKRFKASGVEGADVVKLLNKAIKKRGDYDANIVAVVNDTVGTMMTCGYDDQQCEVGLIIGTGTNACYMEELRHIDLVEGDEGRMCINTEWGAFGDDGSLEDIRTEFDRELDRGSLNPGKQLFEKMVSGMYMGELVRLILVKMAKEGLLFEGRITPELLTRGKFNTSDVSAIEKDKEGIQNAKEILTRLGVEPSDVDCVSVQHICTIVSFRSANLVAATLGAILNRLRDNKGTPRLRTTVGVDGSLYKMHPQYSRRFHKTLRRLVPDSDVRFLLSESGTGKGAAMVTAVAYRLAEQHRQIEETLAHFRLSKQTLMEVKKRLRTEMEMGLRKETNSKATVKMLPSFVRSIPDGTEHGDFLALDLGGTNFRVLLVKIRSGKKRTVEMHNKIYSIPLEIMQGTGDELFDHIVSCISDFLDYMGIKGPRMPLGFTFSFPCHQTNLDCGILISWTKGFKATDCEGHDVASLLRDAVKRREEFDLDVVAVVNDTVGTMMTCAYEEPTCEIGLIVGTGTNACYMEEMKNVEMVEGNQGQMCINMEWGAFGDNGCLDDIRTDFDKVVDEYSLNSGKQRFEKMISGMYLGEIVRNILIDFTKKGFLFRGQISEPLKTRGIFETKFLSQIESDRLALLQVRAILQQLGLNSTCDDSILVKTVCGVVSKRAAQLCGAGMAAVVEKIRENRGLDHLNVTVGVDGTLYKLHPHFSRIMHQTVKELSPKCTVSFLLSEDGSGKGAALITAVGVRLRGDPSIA
The assay can be described thus: Detachment of mitochondria-bound HK-I. The assay is classed as biochemical. Conditions: rat brain mitochondria; HK-I activity in the supernatant.

T1 sequence (Q60932 14-296 E72Q limits assumed): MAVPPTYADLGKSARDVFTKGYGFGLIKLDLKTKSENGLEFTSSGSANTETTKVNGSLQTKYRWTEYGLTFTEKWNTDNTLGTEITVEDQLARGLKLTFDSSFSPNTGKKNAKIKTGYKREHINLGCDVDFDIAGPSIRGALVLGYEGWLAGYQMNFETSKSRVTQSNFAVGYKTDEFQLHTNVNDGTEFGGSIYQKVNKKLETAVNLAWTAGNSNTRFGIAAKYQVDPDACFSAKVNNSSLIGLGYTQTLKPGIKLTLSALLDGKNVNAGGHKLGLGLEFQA
T2 sequence (Q60932 14-296 limits assumed): as the sequence (Q60932 14-296 E72Q limits assumed) above, with Q59E counted along it

With `N.N.N.N.N.N.N.N.N.N.N.N.N.N.[Cl-].[Cl-].[Cl-].[Cl-].[Cl-].[Cl-].[O-2].[O-2].[Ru+3].[Ru+3].[Ru+4]` [RuR, ruthenium red], on E72Q-mVDAC1, the “inhibition of channel activity by RuR” value is listed as “not inhibited”. Also, in assay [1], the “level of inhibition of channel activity” value was determined as 89.2±2.8%. Further, the “Apoptotic cells, % +RuR” value in the assay on U937 cells (Control (non-transfected) U937 cells, RuR 1 μM) is given as 9.1 ± 2.1%. Besides, the “effect on apoptotic death in control or plasmid-transfected cells” value in the assay with U937 cells (RuR) was “had no effect or even slightly increased apoptotic death”. Besides, the “protective effect of RuR on VDAC1 over-expression-induced cell death” value in the assay on U937 cells (cells expressing E72Q-mVDAC1, E72Q-mVDAC1-GFP or E65Q-mVDAC1) is given as “not observed”. In addition, the “increase in the total level of VDAC1 protein” value in the assay on U937 cells (cells expressing native mVDAC1 exposed to RuR) is on record as “over 5 fold”. The “protection against apoptotic cell death” value in the assay on U937 cells (cells over-expressing VDAC1 or VDAC1-GFP, 1 μM RuR for 18 hr or 5 μM RuR for 5 hr) is reported as 64-72%.
In the case of “WTEYGLTFTEKWNTD [Peptide LP1, 15 amino acid peptide derived from the first cytosolic β-loop of VDAC1, amino acids 63-78]”, in assay [2], the “effect on HK-I prevention of PTP opening” value is recorded as “eliminates the HK-I prevention of PTP opening”. The “detachment of mitochondria-bound HK-I” value in the assay with mitochondrial bound HK-I was “able to release mitochondrial bound HK-I”.

The record behind these values is US8648045B2, “VDAC1 compositions and methods of use thereof for regulating apoptosis” (Ben Gurion University of the Negev Research and Development …, priority 2005, dated 2014).
